Data reported in US20060178307A1, “Modulation of NMDA receptor currents via orexin receptor and/or CRF receptor” (priority 2005, published 2006).
Entries after “also recorded” stand apart in the source; their conditions may differ. Where no end group is shown, it is not given here.

Assays:
AMPAR mEPSCs = assay: AMPAR-mediated miniature EPSCs (mEPSCs) in VTA neurons; format: cell-based, rat; details: APV 50 μM 3 min prior and during orexin application
Method: Next, to investigate whether AMPAR function and/or number was modified with orexin A treatment, AMPAR-mediated miniature EPSCs (mEPSCs) were examined (a standard method for determining the locus of synaptic change). Compared to untreated neurons, orexin A (100 nM) caused a significant increase in both amplitude (FIG. 6C,D,F) and frequency (FIG. 6C,E,G) 3-4 hours after application (24±1.6 pA; 2.4±0.5 Hz; n=7 vs control: 13±1.3 pA; 0.93±0.16 Hz; n=7; FIG. 6A), but not at 15 min (15±1.7 pA; 0.9±0.1 Hz; n=[…], FIG. 6B).
AMPAR mEPSCs were recorded in cells voltage-clamped at −70 mV in lidocaine (500 μM), APV (50 μM) and sucrose (100 mM). NMDAR mEPSCs were recorded at −40 mV in Mg2+-free external solution with lidocaine (500 μM), glycine (20 μM), and CNQX (10 μM). mEPSCs were collected using Clampex (Axon Instruments) and analyzed using Mini Analysis Program (Synaptosoft). Detection criteria were set at >10 pA, <1 ms rise-time, and <3 ms decay-time for AMPAR mEPSCs and >10 pA, <1 ms rise-time, and <10 ms decay-time for NMDAR mEPSCs. mEPSC traces were recorded while sampling every 10 μs, the images were filtered at 5 kHz. Averaged mEPSCs were constructed using Mini Analysis Program (Synaptosoft).

[1] = system: NMDAR-mediated EPSCs in VTA dopamine neurons; assay: Evoked NMDAR-mediated EPSCs, whole-cell voltage clamp at +40 mV, VTA neurons in midbrain slices; format: cell-based, rat; details: for effect on potentiation of NMDAR-mediated EPSCs by orexin A: inhibitor 100 μM in patch pipette; for effect on potentiation of NMDAR-mediated EPSCs by 100 nM orexin A: inhibitor 1 μM in patch pipette
Method: Excitatory postsynaptic currents (EPSCs) were recorded from VTA neurons in rat midbrain slices. EPSCs were evoked while holding neurons in voltage clamp at +40 mV. Measurements were taken 20 ms after the stimulus artifact, a time point at which the glutamatergic EPSC is mediated purely by NMDARs.
The patch pipette was loaded with the PLC inhibitor, U-73122 (1 μM, FIG. 2A, C, n=6) or the PKC inhibitor, chelerythrin (1 μM, FIG. 1A, B, n=6). […] Next, the protein kinase A inhibitor, PKI (20 μM, FIG. 2A, F, n=8) or Rp-cAMPs, a blocker of cAMP (100 μM, FIG. 2A, E, n=5) was added to the patch pipette.
Activation of PKC is implicated in NMDAR-dependent long-term potentiation (Malinow et al., 1989) and it modulates NMDAR trafficking to the membrane (Lan et al., 2001; Scott et al., 2001; Fong et al., 2002). NMDARs can translocate from intracellular or extrasynaptic pools to synaptic sites (Lan et al., 2001; Tovar and Westbrook, 2002). […] In a separate group of slices, orexin A (100 nM, n=6) was applied for 5 min during the washout period.
All of the electrophysiological recordings were performed in rats ranging from P21 to P30. Briefly, rats were anesthetized with halothane and sacrificed. Horizontal sections of the VTA ([…]) were prepared with a vibratome (Leica, Nussloch, Germany). Slices were placed in a holding chamber and allowed to recover for at least 1 hour before being placed in the recording chamber and superfused with bicarbonate-buffered solution (ACSF) saturated with 95% O2/5% CO2 and containing (in mM): 119 NaCl, 1.6 KCl, 1.0 NaH2PO4, 1.3 MgCl2, 2.5 CaCl2, 26.2 NaHCO3 and 11 glucose (at 32-34° C.). Picrotoxin (100 μM) was added to block GABAA receptor-mediated inhibitory postsynaptic currents. Cells were visualized using infrared differential interference contrast video microscopy. Whole-cell voltage clamp recordings were made using an Axopatch 1D amplifier (Axon Instruments, Union City, Calif.). Electrodes (2.8-4.0 MΩ) contained (in mM): 120 Cesium Methansulfonate, 20 HEPES, 0.4 EGTA, 2.8 NaCl, 5 TEA-Cl, 2.5 MgATP, and 0.25 NaGTP, pH 7.2-7.3 (270-285 mOsm). Series resistance (10-40 MΩ) and input resistance were monitored on-line with a 4-mV depolarizing step (50 ms) given just after every afferent stimulus. Dopaminergic VTA neurons were identified by the presence of a large Ih current (Lacey et al., 1990; Johnson and North, 1992) and, in some cases, tyrosine hydroxylase labeling. A bipolar stimulating electrode was placed 100-300 μm rostral to the recording electrode and was used to stimulate excitatory afferents at 0.1 Hz. Neurons were voltage-clamped at −70 mV and +40 mV to record AMPAR- and NMDAR-mediated EPSCs.

locomotor activity [2] = assay: Locomotor sensitization to cocaine, intra-VTA OXR1 antagonist, 7-day paradigm; format: in vivo, Sprague-Dawley rats; details: control animals: intra-VTA vehicle + cocaine 15 mg/kg
Method: Male Sprague-Dawley rats (250 grams) were implanted with bilateral cannulae directed at the VTA (AP, −5.2; ML, ±0.5, DV −8.0). Following recovery from surgery, animals were tested in a cocaine sensitization assay similar to that used for systemic administration of the OXR1 antagonist, but with two changes: a 7-day sensitization paradigm was used, and the OXR1 antagonist SB 334867 was microinjected directly into the VTA (6 μg/hemisphere in 300 nL solution composed of 10% DMSO in water). All other methods for habituation and data collection were identical to that described above. Rats were deeply anesthetized with pentobarbital, and perfused with a 10% formaldehyde solution. Brains were cryoprotected in 25% sucrose, 40 μm coronal sections were cut on a freezing microtome, and sections were mounted, dried and coverslipped. Injection sites were located under a light microscope and recorded on atlas figures adapted from Paxinos and Watson (1997).

locomotor activity [3] = assay: Locomotor sensitization to cocaine, i.p. OXR1 antagonist, open field; format: in vivo, Sprague-Dawley rats; details: n=13
Method: To determine if orexin signaling plays a role in behavioral sensitization to cocaine, either the OXR1 antagonist SB 334867 (10 mg/kg, i.p.) or vehicle was injected 15 min prior to injecting cocaine (15 mg/kg, i.p) or saline (0.9%), and then the rats were placed in an open field chamber to measure locomotor activity for 1 hour each day for 5 days.
Therefore, to determine if expression of cocaine sensitization requires release of orexin acting at the OXR1 receptor, the OXR1 antagonist SB 334867 (10 mg/kg) was injected with cocaine (15 mg/kg) on day 6 into either cocaine-sensitized or saline-treated rats.
(§1) Male Sprague-Dawley Rats (P21-P30; Charles River, N.C.) were singly housed with food and water available ad libitum. A 12 hr light/dark cycle was used, with the lights on at 7:00 A.M. All cocaine injections and behavioral testing were performed during the light cycle for consecutive days. The four treatment groups consisted of rats given 5 daily i.p. injections of SB 334867 (10 mg/kg) 15 min preceding i.p. injection of cocaine (15 mg/kg) or saline (0.9% NaCl), or i.p. injections of vehicle (10% DMSO and 25% β-hydroxy cyclodextrin in saline) 15 min preceding i.p. injection of cocaine or saline. All animals were habituated to the photocell boxes (Med Associates, St. Albans, Vt.) for 2 hours prior to the start of the experiment. All animals were further habituated to the photocell boxes for 30 min prior to 60 min testing session. Locomotor activity was measured in 17″×17″ chambers lined with three 16-beam I/R arrays. A 50 ms scanning rate was used for measurement of beams broken. Distance traveled was measured using Open Field Activity Software (Med Associates, Inc) and analyzed for estimates of locomotion based on the movement of a given distance and resting delay (movement in a given period of time).

[4] = system: AMPAR/NMDAR ratio of EPSCs in VTA dopamine cells; assay: AMPAR/NMDAR ratio in VTA slices 24 hr after 5-day in vivo treatment; set-up: species or system rat; details: cocaine 15 mg/kg, 5-day treatment, n=4
Method: The next study investigated whether orexin signaling in the VTA is required for the long-term plasticity associated with the development of behavioral sensitization. Long-term synaptic plasticity at excitatory synapses on VTA neurons was examined 24 hr after a 5-day treatment of cocaine (15 mg/kg) or saline (0.9%), a time course shown to induce long-lasting locomotor sensitization to cocaine (Thomas et al., 2001), with or without the OXR1 antagonist, SB 334867 (10 mg/kg, FIG. 5). To assay for synaptic plasticity, the relative contributions of AMPARs and NMDARs to EPSCs recorded in VTA dopamine cells were compared. Consistent with the potentiation observed following acute and 7-day cocaine treatments (Borgland et al., 2004), 5-day treatment with cocaine potentiated the AMPAR/NMDAR ratio compared to saline controls (FIG. 5A, saline: 0.4±0.07, n=4; cocaine: 0.8±0.1, n=4, p<0.05). This potentiation of synaptic plasticity was blocked by 5-day treatment with the OXR1 antagonist, SB 334867, administered 15 min prior to cocaine or saline (FIG. 5A, saline+SB334867: 0.4±0.02, n=5 vs. cocaine+SB334867: 0.5±0.08, n=11, p>0.05). Since OXR1 antagonists block cocaine-mediated potentiation of the AMPAR/NMDAR ratio, orexin A may either facilitate cocaine-mediated synaptic plasticity or enhance synaptic transmission itself. A 5-min orexin A application was performed to determine whether this caused changes in AMPAR/NMDAR ratio either 15 min or 3-4 hours after application (FIG. 5B).
To calculate the AMPAR/NMDAR ratio, an average of 12 EPSCs at +40 mV was computed before and after application of the NMDAR blocker, AP5 (50 μM) for 5 min. NMDAR responses were calculated by subtracting the average response in the presence of AP5 (AMPAR only) from that seen in its absence; the peak of the AMPAR EPSC was divided by the peak of the NMDAR EPSC to yield an AMPAR/NMDAR ratio.
as §1, with “All animals were habituated to the photocell boxes (Med Associates, St. Albans, Vt.) for 2 hours prior to the start of the experiment. All animals were further habituated to the photocell boxes for 30 min prior to 60 min testing session.” left out, “A 50 ms scanning rate was used for measurement of beams broken.” left out

[5] = system: NMDAR-mediated currents in VTA dopamine cells; assay: CRF-related peptides on NMDAR-mediated currents at excitatory synapses onto VTA dopamine cells; format: cell-based; details: mammalian brain

N[C@H](CCCP(=O)(O)O)C(=O)O [APV, D (−)-2-Amino-5-phosphonopentanoic acid]
effect on orexin A-induced increase in AMPAR mEPSC amplitude at 3-4 hours (AMPAR mEPSCs): significantly reduced; also recorded: blocked

C[C@H](NC(c1cccc2[nH]c(=O)c(=O)[nH]c12)P(=O)(O)O)c1ccc(Br)cc1 (stereo partly shown) [NVP-AAM077]
remaining current ([1]; NVP-AAM077 0.4 μM applied during peak increase induced by 100 nM orexin A, n=6): 87±11%
effect on expression of orexin A-mediated potentiation of NMDAR EPSCs ([1]; NVP-AAM077 0.4 μM applied during peak of potentiation): blocked; also recorded: reversed
effect on ability of 100 nM orexin A to potentiate NMDAR EPSCs ([1]; NVP-AAM077 0.4 μM pre-applied): significantly reduced
inhibition of NMDAR EPSCs ([1]; bath application 0.4 μM, n=6): 54±7%

O=C(O)C1NCCN(C(=O)c2ccc3c(ccc4ccccc43)c2)C1C(=O)O (stereo not shown) [PPDA, 1-(phenantrene-2carbonyl) piperazine-2,3-dicarboxylic acid]
additional inhibition of NMDAR EPSCs ([1]; 1 μM on top of NVP-AAM077 and ifenprodil): 10%
effect on orexin A (100 nM)-mediated NMDAR potentiation ([1]; PPDA 1 μM after co-application of NVP-AAM077 and ifenprodil): blocked
remaining current ([1]; PPDA 1 μM with NVP-AAM077 and ifenprodil, n=6): 14±2.2%

Nc1ncnc2c1ncn2[C@@H]1O[C@@H]2CO[P@@](O)(=S)O[C@H]2[C@H]1O [Rp-cAMPs]
effect on potentiation of NMDAR-mediated EPSCs by orexin A ([1]; n=5): robust potentiation
effect on potentiation of NMDAR-mediated EPSCs by orexin A ([1]; n=5, listed as Rp-cAMPS): did not block

COc1ccc2c(c1)CC[C@@H]1[C@@H]2CC[C@]2(C)[C@@H](NCCCCCCN3C(=O)C=CC3=O)CC[C@@H]12 [U-73122]
effect on potentiation of NMDAR-mediated EPSCs by 100 nM orexin A ([1]; n=6): completely blocked
effect on potentiation of NMDAR-mediated EPSCs by 100 nM orexin A ([1]; n=6, listed as U73122): blocked

[Zn+2] [Zn^2+]
inhibition of NMDAR EPSCs ([1]; 100 nM, n=6): 13±8%
inhibition of NMDAR EPSCs ([1]; 300 nM, n=5): 29±9%
effect on orexin A-mediated potentiation of NMDARs ([1]; Zn2+ 300 nM): significantly reduced; also recorded: mostly blocked

COc1ccc2c(c[n+](C)c3c4cc5c(cc4ccc23)OCO5)c1OC [chelerythrin]
effect on potentiation of NMDAR-mediated EPSCs by 100 nM orexin A ([1]; n=6): completely blocked

COC(=O)[C@H]1[C@@H](OC(=O)c2ccccc2)C[C@@H]2CC[C@H]1N2C [cocaine]
mean locomotor distance on day 7 (locomotor activity [2]): 34162±4477 cm
distance traveled on day 5 (locomotor activity [3]; cocaine-only-treated rats, 15 mg/kg i.p.): 20347±5643 cm
locomotor activity on day 1 (locomotor activity [3]; cocaine-treated rats given vehicle): 5692±1579 cm
AMPAR/NMDAR ratio [4]: 0.8±0.1

CC(C(O)c1ccc(O)cc1)N1CCC(Cc2ccccc2)CC1 (stereo not shown) [ifenprodil]
remaining current after application ([1]; bath-applied 3 μM): 71±6%
effect on orexin A-mediated potentiation of NMDAR EPSCs ([1]; ifenprodil 3 μM bath-applied): no significant effect; also recorded: not affected

Urocortin II: peptide that does not bind CRF-BP (IVLSLDVPIGLLQILLEQARARAAREQATTNARILARVGHC; ends and bridges not checked; UniProt Q96RP3 72-112, looked up)
potentiation of NMDAR currents [5]: do not potentiate

Urocortin: may be the endogenous CRF-R2 ligand and also binds CRF-BP (DNPSLSIDLTFHLLRTLLELARTQSQRERAEQNRIIFDSV; ends and bridges not checked; UniProt P55089 83-122, looked up)
potentiation of NMDAR currents [5]: mimics CRF

ovine CRF: CRF form that does not bind CRF-BP (SQEPPISLDLTFHLLREVLEMTKADQLAQQAHSNRKLLDIA; ends and bridges not checked; UniProt P01142 148-188, looked up)
potentiation of NMDAR currents [5]: do not potentiate
